The values that follow are results of earlier work, collected in paper PMC11246588, “New 1,2,4-oxadiazole derivatives as potential multifunctional agents for the treatment of Alzheimer’s disease: design, synthesis, and biological evaluation” (BMC Chemistry, 2024).

The target of one data set is T1, AChE (Homo sapiens, UniProt P22303).
T1 construct: homogenate supernatant was added in activity ELISA wells only; from tissue; host or cells: brain homogenate supernatant
Set-up: method as in PMID 18550375, PMID 33017743, PMID 36223681, PMID 34752955, PMID 26077890. Particulars: Fig. 1; ref [50]–[55]; cited from earlier work.

In another data set the test system is GSK-3β. On the set-up: method as in PMID 18550375, PMID 33017743, PMID 36223681, PMID 34752955, PMID 26077890. Particulars: Fig. 1; ref [50]–[55]; cited from earlier work.
Details of data set [1]: method as in PMID 18550375, PMID 33017743, PMID 36223681, PMID 34752955, PMID 26077890. To be noted: Fig. 1; ref [50]–[55]; read-out: Anti-neuroinflammatory potency (IC50); cited from earlier work.
A further data set deals with BChE. On the set-up: method as in PMID 18550375, PMID 33017743, PMID 36223681, PMID 34752955, PMID 26077890. Particulars: Fig. 1; ref [50]–[55]; cited from earlier work.
In a further data set the test system is Aβ self-aggregation. Set-up: method as in PMID 18550375, PMID 33017743, PMID 36223681, PMID 34752955, PMID 26077890. To be noted: Fig. 1; ref [50]–[55]; cited from earlier work.
A further data set has as its system hMAO B. Set-up: method as in PMID 18550375, PMID 33017743, PMID 36223681, PMID 34752955, PMID 26077890. Particulars: Fig. 1; ref [50]–[55]; cited from earlier work.

T1 sequence (P22303 32-614): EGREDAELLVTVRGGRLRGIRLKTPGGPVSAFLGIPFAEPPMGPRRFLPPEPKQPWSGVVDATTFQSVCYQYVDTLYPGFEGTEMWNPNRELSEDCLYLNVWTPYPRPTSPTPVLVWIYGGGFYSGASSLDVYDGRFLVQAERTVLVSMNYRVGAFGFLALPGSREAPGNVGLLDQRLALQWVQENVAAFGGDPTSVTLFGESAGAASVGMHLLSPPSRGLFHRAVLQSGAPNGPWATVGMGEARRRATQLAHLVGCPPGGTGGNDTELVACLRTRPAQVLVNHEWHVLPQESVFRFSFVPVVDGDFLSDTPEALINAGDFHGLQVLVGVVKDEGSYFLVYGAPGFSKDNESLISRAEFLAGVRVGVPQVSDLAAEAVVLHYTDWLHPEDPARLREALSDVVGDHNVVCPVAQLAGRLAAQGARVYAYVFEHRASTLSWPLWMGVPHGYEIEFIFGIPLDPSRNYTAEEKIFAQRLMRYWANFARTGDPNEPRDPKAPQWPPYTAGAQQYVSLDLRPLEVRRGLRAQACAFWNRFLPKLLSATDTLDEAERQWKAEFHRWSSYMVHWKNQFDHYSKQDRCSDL

One may read the IC50 as the midpoint of a concentration-inhibition curve. Turning to `Cc1cc(-c2noc(-c3ccc(OCC4CCN(Cc5cccc(F)c5)CC4)cc3)n2)ccn1` [III], the IC50 on AChE is 0.07 µM.
With `CC(C)(C)c1ccc(S(=O)(=O)Nc2ccc(-c3nc(-c4ccnc(Nc5ccccc5Cl)c4)no3)cc2)cc1` [II], the results for the IC50 (with GSK-3β; in data set [1]) were 190 nM and 6.94 µM, respectively.
For the molecule `O=C(CNc1ccc(F)cc1)Nc1ccc(-c2nc(-c3ccnc(Nc4ccc(OC(F)(F)F)cc4)c3)no2)cc1` [IV], in the data set with BChE, the IC50 is 1280 nM. Further, the “Inhibited Aβ self-aggregation” value with Aβ self-aggregation was 51.91%.
`COc1cc(-c2ccc(-c3nc(-c4ccc5[nH]ncc5c4)no3)cc2)cc(OC)c1OC` [VI]: the half-maximal inhibitory concentration (IC50) in the data set on hMAO B was 52 nM.
As to `COc1ccc(-c2noc(Cn3cc(Cn4c5ccccc5c(=O)c5ccccc54)nn3)n2)cc1` [V], the IC50 on AChE was 11.5 µM.
